# Measured values taken from patent publication US7531507B2, “Acylated nonadepsipeptides containing pyridyl alanine residues” (AiCuris GmbH & Co. KG, priority 2004, dated 2009).
# Starred links: 1 amine or outer side, 2 acyl side, 3 side chain; linkers in the order of their positions; H or OH if unused. Positions of bridges follow the written chain, without caps; N, C: chain ends. Non-standard residues stand in square brackets, D forms with d. Residues, ends and D or L forms follow the SMILES beside them. Phe(3R-OH) = O=C([C@@H](N[*:1])[C@H](O[*:3])c1ccccc1)[*:2]; Asn(3S-OH) = NC(=O)[C@@H](O)[C@H](N)C(=O)O; Leu(3R-OH) = CC(C)[C@@H](O)[C@H](N)C(=O)O; aThr = C[C@H](O)[C@H](N)C(=O)O
# Experiments:
# [1] = test system: Staphylococcus aureus 133; assay type: cell-based; details: Isosensitest medium, 10^5 microbes per ml, 37° C., 18-24 hours
# Description: (§1) Determination of the Minimum Inhibitory Concentration (MIC):
# (§2) The MIC is determined in the liquid dilution test in accordance with the NCCLS guidelines. Overnight cultures of Staphylococcus aureus 133, Enterococcus faecalis 27159, E. faecium 4147 and Streptococcus pneumoniae G9a are incubated with the described test substances in a 1:2 dilution series. The MIC determination is carried out with a cell count of 10^5 microbes per ml in Isosensitest medium (Difco, Irvine/USA), with the exception of S. pneumoniae which is tested in BHI broth (Difco, Irvine/USA) with 10% bovine serum with a cell count of 10^6 microbes per ml. The cultures are incubated at 37° C. for 18-24 hours, S. pneumoniae in the presence of 10% CO2.
# (§3) The MIC is defined as the lowest concentration of each substance at which visible bacterial growth no longer occurs. The MIC values are reported in μg/ml.
# [2] = test system: Streptococcus pneumoniae G9a; assay type: cell-based; details: BHI broth with 10% bovine serum, 10^6 microbes per ml, 37° C., 18-24 hours, 10% CO2
# Description: as §1, §2, §3
# [3] = test system: E. faecium L4001; assay type: cell-based, Enterococcus faecium; details: Isosensitest medium, 10^5 microbes per ml, 37° C., 18-24 hours
# [4] = test system: E. faecalis ICB 27159; assay type: cell-based, Enterococcus faecalis; details: Isosensitest medium, 10^5 microbes per ml, 37° C., 18-24 hours
# Description: as §1, §2, §3
# [5] = Determination of the free fraction (fu) in plasma via Transil or ultrafiltration; assay type: in vitro ADME, rat; details: free fraction in rat plasma; read-out: fu (rat)
# Description: Principle of the Determination of the Free Fraction via Transil:
# The method described herein for determining the free fraction (fu) of a test substance is divided into 2 parts:
# a) Determination of the Transil®/buffer partitioning ratio (MAbuffer) by incubating the test substance in a Transil® buffer (pH 7.4) dispersion and subsequently determining the concentration in the dispersion and in the buffer supernatant.
# b) Determination of the Transil®/plasma partitioning ratio (MAplasma) by incubating the test substance in a Transil® plasma dispersion and subsequently determining the concentration in the dispersion and in the plasma.
# The quotient of the two partitioning ratios gives fu.
# Where substances are highly protein-bound, the plasma is usually diluted with isotonic phosphate buffer (pH 7.4) and then suspended with Transil®. Determination of fu′ (free fraction in diluted plasma) in this diluted protein solution takes place in analogy to the determination of fu. The free fraction in undiluted plasma is calculated from fu′ and the dilution factor.
# Concerning this method, compare also: Schuhmacher, Joachim; Kohlsdorfer, Christian; Buehner, Klaus; Brandenburger, Tim; Kruk, Renate, “High-throughput determination of the free fraction of drugs strongly bound to plasma proteins.” Journal of Pharmaceutical Sciences 2004, 93, 816-830.
# Determination of the Membrane Affinity of a Test Substance After Partitioning Between Transil® and Buffer (MAbuffer):
# All incubations are carried out in suitable glass vessels, e.g. glass vials, ground-joint test tubes. The total volume is usually 0.5-5 ml, and the Transil® volume is 10-100 μl. If the membrane affinities are expected to be high, the Transil® dispersion can be diluted up to 20 times with phosphate buffer of pH 7.4, e.g. Dulbecco's PBS. Phosphate buffer of pH 7.4 is introduced into the incubation vessels, and the Transil® is pipetted in after thorough mixing. The test substance is pipetted in at a concentration of, for example, 200 ng/ml, n=6. The proportion of organic solvents should be ≦2%. The mixtures are incubated at room temperature i.e. on a mini-shaker at an angle of about 45°, at about 400 rpm for 30 min. The 100% value is determined by taking at least one aliquot of, for example, 100 μl, and the remaining mixture is centrifuged at about 1800 g for about 10 min. […]
# The plasma of the species to be investigated is filtered through a semipermeable membrane. The concentration of substance in the filtrate is measured, and the free fraction fU is calculated therefrom. […] The concentration of substance in the ultrafiltrate (Cu, unbound substance concentration) and in the plasma before centrifugation (C; total substance concentration) is measured. The free fraction is calculated by the formula fu (%)=Cu/C*100.
smiles,measurement,setting,value
"CC[C@H](C)[C@@H]1NC(=O)[C@@H](CCCNC(=N)N)NC(=O)[C@H](CC(C)C)NC(=O)[C@H]([C@H](O)C(C)C)NC(=O)[C@@H](NC(=O)[C@H](CC(C)C)NC(=O)[C@H](N)CC(C)C)[C@@H](c2ccccc2)OC(=O)[C@H](CO)NC(=O)[C@H]([C@H](O)C(N)=O)NC(=O)CNC(=O)[C@H]([C@H](C)O)NC1=O [Example 1A, D-Leucyl-N^1-4-{(3S,6S,12S,15S,18R,21S,24S,27S,28R)-6-[(1S)-2-amino-1-hydroxy-2-oxoethyl]-18-(3-{[amino(imino)methyl]amino}propyl)-12-[(1S)-1-hydroxyethyl]-3-(hydroxymethyl)-24-[(1R)-1-hydroxy-2-methylpropyl]-21-isobutyl-15-[(1S)-1-methylpropyl]-2,5,8,11,14,17,20,23,26-nonaoxo-28-phenyl-1-oxa-4,7,10,13,16,19,22,25-octaazacyclooctacosan-27-yl}-L-leucinamide bistrifluoroacetate (lysobactin), reference compound] (H-[dL]L[Phe(3R-OH)][Leu(3R-OH)]L[dR]I[aThr]G[Asn(3S-OH)]S; ester 3-C)",MIC S. aureus 133,[1],0.5 µg/mL
same,MIC S. pneumoniae G9a,[2],0.063 µg/mL
same,MIC E. faecium L4001,[3],0.5 µg/mL
same,MIC E. faecalis ICB 27159,[4],0.5 µg/mL
same,fraction unbound at 30 min,[5],0.0067
